Experimental findings from patent US6347239B1, “Method of evaluating the efficacy of drug on brain nerve cells” (priority 1998, dated 2002) are described below.

Assay [1] has as its system primary motor cortex of patients with ALS. As to the kind of experiment: Proton MRSI of NAA/Cr in the motor cortex of ALS patients, paired scans. The assay is classed as in vivo, human. How it is done:
Nineteen patients with a diagnosis of definite or probable ALS, as per the El Escorial Criteria, ^12 were recruited. Each patient underwent paired MRSI examinations. […] Thus, closely paired MRSIs were obtained off medication in 12 subjects who formed a disease control group ALS-C.
Brain proton spectroscopy was performed using a Philips Gyroscan ACS3 operating at 1.5 Tesla (Philips Medical System, Best, The Netherlands). After axial and sagittal scout images and sagittal T1-weighted images were obtained, axial T1-weighted images were acquired with an angulation determined from sagittal T1-weighted images such that the transverse plane was perpendicular to the rostral-caudal axis of the precentral gyrus. These transverse scans were used to select a volume of interest (VOI) centered on the central sulcus, high in the cranium comprised of predominantly cortical brain (FIG. 1A). Cranio-caudal (CC) thickness was 20 mm. Anteroposterior (AP) and left-right (LR) dimensions were adjusted for each patient depending on the skull size and shape to maximize size without including skull. MRSI was performed using a 90°-180°−180° (PRESS) sequence (TR=1750, TE=272, 250×250 mm FOV, 32×32 phase-encoding steps) with prior suppression of water by selective excitation. One patient had all their scans performed with TR=1500. The ROI was repositioned in the identical location in follow up scans of each patient.
Post-processing of data, included a mild Gaussian filter and an inverse two-dimensional Fourier transform of both the water-suppressed and -unsuppressed ^1H-MRS. This was accomplished with XUNSPEC1 software (Philips Medical Systems Best, The Netherlands) running on a Sun SPARC™ station.
The residual water signal was removed using the HSVD (Hankel Singular-Value Decomposition) algorithm which models the time-domain ^1H-MRS data in each voxel with exponentially damped sinusoids. Peaks used to model the water signal were then subtracted from the original data. This algorithm is fully automatic and requires no prior knowledge or operator intervention.
Automated calculation of metabolite peak areas was performed on operator-selected voxels within the motor cortex. Peaks were digitally integrated to yield areas. These values were normalized by dividing them by that of Cr.
The NAA/Cr of the primary motor cortex was determined by averaging the NAA/Cr intensities of voxels located in the precentral gyrus of both hemispheres (FIGS. 1A and 1B). The difference in motor cortex NAA/Cr between two scans (ΔNAA/Cr) obtained approximately 3 weeks apart was determined for each ALS patient in the treated (ALS-R) and control (ALS-C) groups. ΔNAA/Cr was compared between the treated and control groups using a two-sample two-sided Student's t-test. In addition, a two-sided paired Student's t-test was used to evaluate the significance of […] within each group.

The subject of assay [2] is patients with ALS. As to the kind of experiment: Clinical status and muscle strength (MRC grades) of ALS patients during therapy. It is filed as in vivo, human. An excerpt: Deltoid and iliopsoas MRC grades improved bilaterally from 4 to 4+.
Several patients agreed to longer term follow up studies. […] Patient #17 was never treated: NAA/Cr decreased from 2.51 to 2.42 after 21 days and further to 2.11 4 months later; their symptoms progressed slowly.

Values joined by “and” are separate entries in the source; they are usually repeats but may differ in a detail not shown here. Equal entries are not always repeated.

As to `Nc1nc2ccc(OC(F)(F)F)cc2s1` [RILUZOLE, 2-amino-6-trifluoromethoxy-benzothiazole], in assay [1] (11 patients (ALS-R), 24±8 days after initiating therapy, increased from 2.14±0.26, mean±SD, p=0.044), the “average NAA/Cr for the group after therapy” value is reported as 2.27±0.24. Also, the “ΔNAA/Cr = Change in NAA/Cr between MRSI scan #1 and #2” value in assay [1] (ALS-R group, scan just before treatment vs approximately three weeks after starting 50 mg bid, individual patients 1-11 and group mean (n = 11)) is −0.011 and 0.111 and 0.438 and 0.295 and 0.118 and 0.234 and −0.021 and −0.251 and 0.222 and 0.290 and 0.034. Also, the “NAA/Cr MRSI #2 (NAA/Cr of motor cortex)” value in assay [1] (ALS-R group, second scan approximately three weeks after starting 50 mg bid, individual patients 1-11 and group mean (n = 11)) was 2.508 and 2.643 and 2.442 and 2.416 and 2.423 and 2.291 and 1.890 and 2.083 and 2.247 and 1.969 and 2.053. Moreover, the “change in NAA/Cr for the treated group with respect to the untreated group (increase)” value in assay [1] (ALS-R vs ALS-C, approximately 3 weeks, mean±SE, p=0.008) is reported as 0.22±0.095. Also, the NAA/Cr in assay [1] (patient #2, after 35 days of therapy, from 2.53) is 2.64; in assay [1] (patient #2, three months later than the 35-day scan) it was 2.74; in assay [1] (patient #3, after 18 days of therapy, from 2.00), 2.44; in assay [1] (patient #3, three months later than the 18-day scan) it was 1.46; in assay [1] (patient #5, after 21 days of therapy, from 2.24), 2.31; in assay [1] (patient #5, one year later), 2.42. In assay [1] (patients with ALS, acute (within 3 weeks) after treatment), the “signal from NAA in the motor cortex” value is given as “increase”. Also, the clinical status result was “increased strength and fewer cramps” in assay [2] (patient #2, three months after the 35-day scan); “significant clinical deterioration” in assay [2] (patient #3, three months after the 18-day scan). The “clinical status (weakness, predominantly LMN features)” value in assay [2] (patient #5, one year later) was “slowly progressed”. Besides, in assay [2] (patient #11, after 35 days of therapy), the “symptomatic and functional changes” value was “improved strength and reduced disability”.
